Entries after “also recorded” stand apart in the source; their conditions may differ.
Key:
AimR^Kat = target: T1, AimR^Kat (Bacillus subtilis (Katmira prophage), UniProt A0A8I3AZZ2); format: binding, Katmira phage; settings: for Tm: Supplementary Fig. 5a, peptides at 0.5mM; for effect on Tm / stabilisation (in words): ThermoFluor
T1 sequence (A0A8I3AZZ2 2-387): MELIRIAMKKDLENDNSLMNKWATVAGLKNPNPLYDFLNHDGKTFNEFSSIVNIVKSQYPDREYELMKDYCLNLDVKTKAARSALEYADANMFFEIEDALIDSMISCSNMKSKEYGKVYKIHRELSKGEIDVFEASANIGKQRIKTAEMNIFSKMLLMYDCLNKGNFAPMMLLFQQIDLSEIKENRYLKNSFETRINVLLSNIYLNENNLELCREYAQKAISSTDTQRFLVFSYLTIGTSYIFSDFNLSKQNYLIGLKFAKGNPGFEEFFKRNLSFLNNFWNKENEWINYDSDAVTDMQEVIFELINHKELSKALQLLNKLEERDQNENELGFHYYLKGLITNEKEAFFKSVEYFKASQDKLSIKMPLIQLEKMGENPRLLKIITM
Method: The thermal shift assay was conducted in a 7500 Fast Real time PCR System (Applied Biosystems) as previously described. Briefly, samples of 20 μl buffer (20 mM Tris pH 8 and 250 mM NaCl) containing 5× Sypro Orange (Sigma-Aldrich) and 20 μM of protein were loaded in 96-well PCR plates. […] Samples were heated from 25 to 85 °C in steps of one degree. Fluorescent intensity was plotted versus temperature and integrated with GraphPad Prism software using a Boltzmann model to calculate melting temperatures.

AimR^Kat-N273A [1] = target: T2, AimR^Kat-N273A (Bacillus subtilis, UniProt A0A8I3AZZ2, N274A); assay: Thermal shift assay of AimR^Kat-N273A with peptides; format: binding, Katmira phage; settings: ThermoFluor
Method: The thermal shift assay was conducted in a 7500 Fast Real time PCR System (Applied Biosystems) as previously described. Briefly, samples of 20 μl buffer (20 mM Tris pH 8 and 250 mM NaCl) containing 5× Sypro Orange (Sigma-Aldrich) and 20 μM of protein were loaded in 96-well PCR plates. To calculate the Tm in the presence of the peptide, 0.5 μM of GMPRGA or GIVRGA peptide was added to the mixture. Samples were heated from 25 to 85 °C in steps of one degree. Fluorescent intensity was plotted versus temperature and integrated with GraphPad Prism software using a Boltzmann model to calculate melting temperatures.

AimR^Kat-DNA interaction = assay: EMSA, peptide-induced release of AimR^Kat from its DNA operator; format: biochemical, Katmira phage; settings: protein preincubated with 0.5 μM peptide 10 min, repeated three times
Method: (§1) AimR binding to its operator and the inhibition induced by the arbitrium peptide was analysed by native polyacrylamide and agarose gel electrophoresis. Double strand DNA primer probes were purchased from Macrogen. DNA (10 ng µl^−1) and AimR (from 0.5 μM) protein was mixed in EMSA buffer (50 mM tris pH8, 250 mM NaCl). The samples were incubated for 10 min at room temperature. For peptide inhibition assay, protein was preincubated with 0.5 μM peptide for 10 min before DNA addition. Electrophoresis was then performed in 8% polyacrylamide gels in Tris-Borate-EDTA (TBE) buffer for about 150 min at 100 V at 4 °C.

[2] = system: AimR^Kat-N273A-DNA interaction; assay: EMSA, peptide-induced release of AimR^Kat-N273A from its target DNA; format: biochemical, Katmira phage; settings: protein preincubated with 0.5 μM peptide 10 min, repeated three times
Method: as §1

[3] = system: SPβ ΔaimR prophage complemented with AimR^SPβ; assay: Prophage induction and phage titering, SPβ ΔaimR complemented with AimR^SPβ; format: cell-based, phage SPβ in B. subtilis; settings: for phage titer: JP 20223, 5 μM peptide, MC induced
Method: For induction, an overnight culture was diluted 1/100 in LB media supplemented with 0.1 mM MnCl2 and 5 mM MgCl2 and then grown at 37 °C with 210 rpm shaking until reaching absorbance 0.2 at 600 nm. This step was repeated twice to ensure the cells were in exponential growth. After the second growth, Mitomycin C (MC) at 0.5 μg ml^−1 was added to the culture. Where experiments were performed to test the effect of peptide on phage titre, 5 μM of the relevant peptide was added before starting the second growth to ensure the bacteria cells were able to incorporate the peptide. The induced cultures were incubated at 30 °C with 80 rpm shaking for 4 h and then left overnight at room temperature. Following lysis, samples were filtered using 0.2 μm filters and lysates were stored at 4 °C until use.
The number of phage particles contained in the phage lysate of interest was quantified by a titering assay. An overnight culture of the relevant recipient strain (normally B. subtilis ∆6 or with the corresponding plasmid) was diluted 1/100 in LB supplemented with 0.1 mM MnCl2 and 5 mM MgCl2 and then grown at 37 °C with 210 rpm shaking until reaching absorbance 0.2 at 600 nm. When required 1 mM IPTG was added. Then, 100 μl of recipient bacteria was infected with 100 μl of serial dilutions of phage lysate in phage buffer (PhB; 1 mM NaCl, 0.05 M Tris pH 7.8, 0.1 mM MnCl2, 5 mM MgCl2) at room temperature for 10 min and 3 ml of phage top agar (LB media supplemented with 0.1 mM MnCl2 and 5 mM MgCl2 and 0.7 % agar) at 55 °C was added to the culture-phage mix and immediately poured over phage base agar plates (LB media supplemented with 0.1 mM MnCl2 and 5 mM MgCl2 and 1.5% agar). Plaques were counted after overnight growth at 37 °C temperature and photographed.

AimR^SPβ = settings: previously reported; cited from earlier work
AimR^Kat-N273A [4] = target: T2, AimR^Kat-N273A; assay: ITC, AimP binding to AimR^Kat-N273A; design: species or system Katmira phage; settings: 25 °C, 25 mM Tris-HCl pH 8, 250 mM NaCl
Method: ITC assays were carried out in a Nano ITC Low Volume (TA instruments). In the assays, proteins (AimR^Kat or AimR^Kat-N273A) and peptides concentration were 10 and 50 μM, respectively, and both were diluted in buffer 25 mM Tris-HCl pH 8, 250 mM NaCl. The experiments were performed at 25 °C. The data obtained was integrated, corrected and analysed using the NanoAnalyze software (TA Instruments) with a single-site or two-site binding models.

Row | Substance | Tm (AimR^Kat) | effect on Tm / stabilisation (in words) (AimR^Kat) | stabilisation / binding capacity (in words) (AimR^Kat-N273A [1]) | release of AimR^Kat from DNA (AimR^Kat-DNA interaction) | release of AimR^Kat from DNA (AimR^Kat-DNA interaction; listed as GMPRGA) | release of AimR^Kat-N273A from DNA [2] | phage titer ([3]; repeat 1) | phage titer ([3]; repeat 2) | phage titer ([3]; repeat 3) | phage titer ([3]; repeat 4) | phage titer ([3]; repeat 5) | phage titer ([3]; repeat 6) | phage titer ([3]; repeat 7) | reduction of phage titre ([3]; MC 0.5 μg/ml, 5 μM peptide, compared with no peptide) | increase of Tm (AimR^SPβ) | binding by ITC (in words) (AimR^Kat-N273A [4]) | release of AimR^Kat from DNA (AimR^Kat-DNA interaction; listed as SAIRGA)
1 | GMPRGA [AimP^SPβ, the SPβ AimP peptide] | 43 ºC | did not have any effect | stabilises AimR^Kat-N273A | only AimP^Kat for the wt form | neither GMPRGA (AimP^SPβ) nor SAIRGA (the phi3T AimP peptide, AimP^Phi) (Fig. 1b) affected AimR^Kat in its ability to recognise its cognate DNA box | induce DNA releases for the N273A mutant form of AimR^Kat; also recorded: able to induce the release of AimR^Kat-N273A from its target DNA | 7.90E+08 pfu/ml | 9.60E+07 pfu/ml | 2.12E+09 pfu/ml | 6.30E+07 pfu/ml | 8.90E+07 pfu/ml | 2.90E+08 pfu/ml | 7.80E+07 pfu/ml | 10 times | 10 °C | – | –
2 | SAIRGA [AimP^Phi, the phi3T AimP peptide] | 43 ºC | did not have any effect | – | insensitive | – | insensitive | – | – | – | – | – | – | – | – | – | unable to bind | neither GMPRGA (AimP^SPβ) nor SAIRGA (the phi3T AimP peptide, AimP^Phi) (Fig. 1b) affected AimR^Kat in its ability to recognise its cognate DNA box

Source: article PMC9232636, “Insights into the mechanism of action of the arbitrium communication system in SPbeta phages” (Nature Communications, 2022)
